Assay results published in patent US9359389B2, “Caged ceramide-1-phosphate derivatives” (RESEARCH FOUNDATION OF THE CITY UNIVERSITY OF NEW YORK, priority 2009, dated 2016).
Entries after “also recorded” stand apart in the source; their conditions may differ.

What was measured:
[1] = Qualitative measurement of uncaging efficiency (photolysis at 365 nm, TLC); type: physicochemical; conditions: 100 μM in 50% aqueous EtOH, 50% 10 mM Tris, pH 7.4, 365 nm UV lamp at 1 cm
Protocol: Qualitative Measurement of Uncaging Efficiency. A 100 μM solution of S1P 1 in 50% aqueous EtOH and 50% 10 mM Tris, pH 7.4, was placed in a quartz cuvette and placed at a distance of 1 cm from a conventional UV lamp (Entela UVGL-25 UV lamp). The compound was irradiated using long wavelength (365 nm) and, after a certain time, as indicated in the TLC, an aliquot was applied to a TLC plate, which was developed with CHCl3/MeOH 3:1. Photodecomposition of 100% DECM-caged 1P 1 took place around 60 min.
Qualitative Measurement of Uncaging Efficiency. A 100 μM solution of BHNB-caged S1P (2) in 50% aqueous EtOH and 50% 10 mM Tris, pH 7.4, was placed in a quartz cuvette and irradiated at 365 nm at a distance of 1 cm with a conventional UV lamp (Entela UVGL-25 UV lamp). Aliquots were withdrawn at various times and analyzed by TLC (developed using CHCl3/MeOH 2:1). The mechanism of photolysis of 2-nitrobenzyl caged compounds has been thoroughly studied and is known to generate 2-nitrosobenzaldehyde as the photo by-product of the reaction.^S1 Similarly, our BHNB uncaging experiment is expected to generate a 2-nitrosobenzophenone derivative as the byproduct (Formula 20). […] 100% photodecomposition of […]-S1P (2) took place after 65 min.

primary BMDM cells = assay: Cell growth and proliferation assay (MTS) in primary bone marrow-derived macrophages; type: cell-based, CD-1 mice; conditions: for concentration at which cell division was stimulated (MTS assay) on exposure of the cells to light: primary BMDM, compound in EtOH
Protocol: The cells were incubated with 1.5% MCSF for 24 hr.
Compounds 1a and 2a stimulated cell division, as determined by the MTS assay, at 2.5 and 1.0 μM, respectively, on exposure of the cells to light.
Cell Growth and Proliferation Assays. RAW 264.7 cells were obtained from the American Type Culture Collection (Rockville, Md.). BMDMs were isolated from femurs of 6- to 8-week old female CD-1 mice from Charles River Laboratory as described previously.^S2 The cells were cultured as described previously. Cell growth was estimated by measuring the rate of reduction of the tetrazolium dye MTS, (3-(4,5-dimethylthiazol-2-yl)-5-(3-carboxymethoxy-phenol)-2-(4-sulfophenyl)-2H-tetrazolium). […] Photolysis of 2.5 μM of compound 1a (delivered to RAW 264.7 cells in EtOH) was equipotent as exogenous 30 μM C1P.

RAW 264.7 cells = assay: Cell growth and proliferation assay (MTS) in RAW 264.7 macrophages; conditions: for cell growth on delivery into RAW 264.7 macrophages: FIG. 3A, 400-500 nm light in a transilluminator; for concentration at which cell division was stimulated (MTS assay) on exposure of the cells to light: RAW264.7, compound in EtOH, 400-500 nm light; for growth stimulation in the dark: cells incubated in the dark with the compounds; for concentration for stimulation of macrophage proliferation compared with exogenous C1P: macrophages (RAW 264.7 and BMDM), after photorelease
Protocol: Cell Growth and Proliferation Assays. RAW 264.7 cells were obtained from the American Type Culture Collection (Rockville, Md.). […] Cell growth was estimated by measuring the rate of reduction of the tetrazolium dye MTS, (3-(4,5-dimethylthiazol-2-yl)-5-(3-carboxymethoxy-phenol)-2-(4-sulfophenyl)-2H-tetrazolium).
The cells were exposed to 400-500 nm light in a transilluminator equipped with a 9W lamp for 60 min at a distance of 1.5 cm at 37° C.

Structure (SMILES) | time to 100% photodecomposition [1] | concentration at which cell division was stimulated (MTS assay) on exposure of the cells to light (primary BMDM cells) [µM] | cell growth on delivery into RAW 264.7 macrophages (RAW 264.7 cells) | concentration at which cell division was stimulated (MTS assay) on exposure of the cells to light (RAW 264.7 cells) [µM] | growth stimulation in the dark (RAW 264.7 cells) | concentration for stimulation of macrophage proliferation compared with exogenous C1P (RAW 264.7 cells) | also measured
CCCCCCCCCCCCC/C=C/[C@@H](O)[C@@H](N)COP(=O)(O)OCc1cc(=O)oc2cc(N(CC)CC)ccc12 [Compound 1, (2S,3R,4E)-2-Amino-3-hydroxyoctadec-4-enyl (7-(Diethylamino)coumarin-4-yl) -methyl Phosphate] | around 60 min |  |  |  |  |  | 
CCCCCCCCCCCCC/C=C/[C@@H](O)[C@H](COP(=O)(O)OCc1cc(=O)oc2cc(N(CC)CC)ccc12)NC(=O)CCCCCCCCCCCCCCC [Compound 1a, (2S,3R,4E)-2-Palmitamido-3-hydroxyoctadec-4-enyl (7-Diethylaminocoumarin-4-yl)methyl Phosphate] |  | 2.5 | stimulates cell growth | 2.5 | No growth stimulation | significantly lower concentrations than exogenous C1P | potency of growth stimulation compared with exogenous C1P at 30 μM (RAW 264.7 cells; RAW 264.7, 2.5 μM in EtOH, photolysis): as potent as exogenous C1P; also recorded: equipotent
CCCCCCCCCCCCC/C=C/[C@@H](O)[C@@H](N)COP(=O)(O)OC(c1ccccc1)c1cc(O)c(Br)cc1[N+](=O)[O-] (stereo partly drawn) [Compound 2, (2S,3R,4E)-2-Amino-3-hydroxyoctadec-4-enyl-(4′-bromo-5′-hydroxy-2′-nitrophenyl)(phenyl)methyl Hydrogen Phosphate] | 65 min |  |  |  |  |  | 
CCCCCCCCCCCCC/C=C/[C@@H](O)[C@H](COP(=O)(O)OC(c1ccccc1)c1cc(O)c(Br)cc1[N+](=O)[O-])NC(=O)CCCCCCCCCCCCCCC (stereo partly drawn) [Compound 2a, (4′-Bromo-5′-hydroxy-2′-nitrophenyl)(phenyl)methyl-(2S,3R,4E)-3-hydroxy-2-palmitamidooctadee-4-enyl Hydrogen Phosphate] |  | 1.0 | stimulates cell growth | 1.0 | No growth stimulation | significantly lower concentrations than exogenous C1P | 
CCCCCCCCCCCCC/C=C/[C@@H](O)[C@H](COP(=O)(O)O)NC(=O)CCCCCCCCCCCCCCC [N-palmitoyl-C1P, reference compound] |  |  |  |  |  |  | optimum concentration for stimulation of cell growth (primary BMDM cells; BMDM, aqueous dispersion, exogenous addition): 50 µM; optimum concentration for stimulation of cell growth (RAW 264.7 cells; RAW 264.7, aqueous dispersion, exogenous addition): 30 µM; effect on cell growth at concentrations higher than 30 μM (RAW 264.7 cells; RAW 264.7, exogenous aqueous dispersion): growth inhibitory
